Measurements: US4458076A, “3-(4-Piperidinyl)-1,2-benzisothiazoles” (Hoechst-Roussel Pharmaceuticals, priority 1983, dated 1984)
Read-outs that look alike come from different tables or passages of the source.

Experiments:
[1] = tested on: phenyl-p-quinone writhing; experiment: analgetic activity in the phenyl-p-quinone writhing assay; type: in vivo; conditions: Mus musculus, sc; subcutaneous dose effecting an approximately 50% inhibition of writhing in mice
Source text: 3-(4-piperidinyl)-1,2-benzisothiazoles of the present invention are useful as analgetics due to their ability to alleviate pain in mammals. […] Exptl. Biol Med., 95 729 (1957)]. Thus, for instance, the subcutaneous dose effecting an approximately 50% inhibition of writhing (ED50) in mice produced in this assay is as shown in Table 2.

[2] = tested on: apomorphine-induced climbing; experiment: antipsychotic activity in the climbing mice assay (apomorphine-induced climbing); type: in vivo, CK-1 male mice; conditions: Mus musculus, ip, inhibition of climbing, compound intraperitoneally 30 minutes prior to apomorphine 1.5 mg/kg subcutaneously, readings at 10, 20 and 30 minutes, linear regression
Procedure: The subject CK-1 male mice (23-27 grams) are group-housed under standard laboratory conditions. The mice are individually placed in wire mesh stick cages (4"×4" by 10") and are allowed one hour for adaptation and exploration of the new environment.
For evaluation of climbing, 3 readings are taken at 10, 20 and 30 minutes after apomorphine administration according to the following scale: […]
Mice consistently climbing before the injection of apormorphine will be discarded.
With full-developed apomorphine climbing, the animals are hanging on to the cage walls, rather motionless, over longer periods of time. By contrast, climbs due to mere motor stimulation usually only last a few seconds.

| Compound | ED50 [1] [mg/kg] | ED50 [2] [mg/kg] | ED50 ([2]; read-out: ANT[…] (ED50 mg/kg)) [mg/kg] |
| --- | --- | --- | --- |
| CN1CCC(c2nsc3ccccc23)CC1 [3-(1-Methyl-4-piperidinyl)-1,2-benzisothiazole] | 0.73 |  |  |
| c1ccc2c(C3CCNCC3)nsc2c1 [3-(4-piperidinyl)-1,2-benzisothiazole] | 2.1 |  |  |
| O=c1[nH]c2ccccc2n1CCCN1CCC(c2nsc3ccccc23)CC1 [3-[1-(1,3-Dihydro-2-oxo-2H-benzimidazol-1-ylpropyl)-4-piperidinyl]-1,2-benzisothiazole] |  | 0.32 |  |
| Fc1ccc2c(CCCN3CCC(c4nsc5ccccc45)CC3)noc2c1 [3-[1-(6-Fluoro-1,2-benzisoxazole-3-propyl)-4-piperidinyl]-1,2-benzisothiazole] | 0.3 | 0.17 |  |
| c1ccc2c(C3CCN(CC4CC4)CC3)nsc2c1 [3-{1-(cyclopropylmethyl)-4-piperidinyl}-1,2-benzisothiazole] | 0.07 | 5.8 |  |
| Fc1ccc(C(CCCN2CCC(c3nsc4ccccc34)CC2)c2ccc(F)cc2)cc1 [3-{1-[4,4-bis-(4-Fluorophenyl)-1-butyl]-4-piperidinyl}-1,2-benzisothiazole] |  | 3.3 |  |
| c1ccc(CCN2CCC(c3nsc4ccccc34)CC2)cc1 [3-{1-[Phenethyl]-4-piperidinyl}-1,2-benzisothiazole] | 0.2 | 7 |  |
| Cc1[nH]c2ccccc2c1CCCN1CCC(c2nsc3ccccc23)CC1 [3-{3-[4-(1,2-benzisothiazol-3-yl)piperidinyl]propyl}-2-methyl indole] |  | 0.17 |  |
| O=C(CCCN1CCC(O)(c2ccc(Cl)cc2)CC1)c1ccc(F)cc1 [haloperidol, reference compound] |  |  | 0.11 |
| CC(C)=CCN1CCC2(C)c3cc(O)ccc3CC1C2C (centres unmarked) [pentazocine, reference compound] | 1.3 |  |  |
| CCC(=O)O[C@](Cc1ccccc1)(c1ccccc1)[C@H](C)CN(C)C [propoxyphene, reference compound] | 3.9 |  |  |
